This is an account of results in US20090023200A1, “PARTICLE FOR DETECTING ENZYME ACTIVITY, METHOD FOR DETECTING THE ENZYME ACTIVITY AND ENZYME ACTIVITY DETECTION DEVICE BY THE USE THEREOF” (priority 2005, published 2009).

Assay type in all cases: biochemical
Series [1] deals with subtilisin. Nature of the series: Subtilisin cleavage of particles for detecting enzyme activity, fluorescence change (Example 1). The note with it: for Fluorescence value (changed amount): subtilisin 10 units, 1 mg particle, difference 20 minutes after adding sample solution vs before, excitation 485 nm, fluorescence 535 nm. As for the experimental part: To each 1 mg of the particle for detecting the enzyme activity of the samples 1 to 8, 190 μL of 20 mM Tris-HCl buffer (pH 8.0, 100 mM NaCl, 50 mM CaCl2) containing 0.01% Tween 20 was added, to which 10 μL of subtilisin aqueous solution (10 units) as a sample solution was added. Every measurement time, 10 μL of the sample was taken and 190 μL of the buffer was added, the mixture was transferred to a 96-well plate, and fluorescence values were measured (measurement time: 0.1 seconds) using Wallac 1420 ARVO sx plate reader manufactured by PerkinElmer. A changed amount (difference between the fluorescence value 20 minutes after adding the sample solution and the fluorescence value before adding the sample solution) of the fluorescence value 20 minutes after adding the sample solution is shown in the column on the right in Table 1 (excitation wavelength: 485 nm, fluorescence wavelength: 535 nm).

The subject of series [2] is trypsin. Nature of the series: Trypsin cleavage of particles for detecting enzyme activity, fluorescence change (Example 2). The note with it: trypsin 100 units, 1 mg particle, difference 60 minutes after adding sample solution vs before; excitation 485 nm, fluorescence 535 nm. As for the experimental part: To each 1 mg of the particle for detecting the enzyme activity of the samples 9 to 21, 190 μL of 20 mM Tris-HCl buffer (pH 8.0, 100 mM NaCl, 50 mM CaCl2) containing 0.01% Tween 20 was added, to which […] of trypsin aqueous solution (100 units) as the sample solution was added. Every measurement time, 10 μL of the sample was taken and 190 μL of the buffer was added, the mixture was transferred to the 96-well plate, and fluorescence values were measured (measurement time: 0.1 seconds) using Wallac 1420 ARVO sx plate reader manufactured by PerkinElmer. The changed amount (difference between the fluorescence value 60 minutes after adding the sample solution and the fluorescence value before adding the sample solution) of the fluorescence value 60 minutes after adding the sample solution is shown in the column on the right in Table 2 (excitation wavelength: 485 nm, fluorescence wavelength: 535 nm).

For series [3], the system named is elastase. As to the kind of experiment: Elastase cleavage of particles, fluorescence change (Example 3). The conditions noted are these: for Fluorescence value Elastase (changed amount): elastase 10 units, 1 mg particle, difference 60 minutes after adding sample solution vs before, excitation 485 nm, fluorescence 535 nm. As for the experimental part:
(§1) To each 1 mg of the particle for detecting the enzyme activity of the samples 22 to 25, 190 μL of 20 mM Tris-HCl buffer (pH 8.0, 100 mM NaCl, 50 mM CaCl2) containing 0.01% Tween 20 was added, to which 10 μL of elastase aqueous solution (10 units), 10 μL of trypsin aqueous solution (10 units) and 10 μL of subtilisin aqueous solution (10 units) as the sample solution was added. Every measurement time, 10 μL of the sample was taken and 190 μL of the buffer was added, the mixture was transferred to the 96-well plate, and fluorescence values were measured (measurement time: 0.1 seconds) using Wallac 1420 ARVO sx plate reader manufactured by PerkinElmer. The changed amount (difference between the fluorescence value 60 minutes after adding the sample solution and the fluorescence value before adding the sample solution) of the fluorescence value […] the sample solution is shown in the column on the right in Table 3 (excitation wavelength: 485 nm, fluorescence wavelength: 535 nm).

For series [4], the system named is subtilisin. As to the kind of experiment: Subtilisin cleavage of particles, fluorescence change (Example 3). The note with it: subtilisin 10 units, 1 mg particle, difference 60 minutes after adding sample solution vs before; excitation 485 nm, fluorescence 535 nm. As for the experimental part: as §1
Series [5] has as its system trypsin. As to the kind of experiment: Trypsin cleavage of particles, fluorescence change (Example 3). The conditions noted are these: for Fluorescence value Trypsin (changed amount): trypsin 10 units, 1 mg particle, difference 60 minutes after adding sample solution vs before, excitation 485 nm, fluorescence 535 nm. As for the experimental part:
as §1

Square brackets hold non-standard residues; d marks the D form. Ends that are not written are not given here. * marks the point of attachment. FITC = O=C1OC2(c3ccc(O)cc3Oc3cc(O)ccc32)c2ccc(NC(=S)*)cc21; Dnp = O=[N+]([O-])c1ccc(*)c([N+](=O)[O-])c1; βAla = NCCC(=O)O Some results are limits rather than exact numbers.

Turning to “Sample 1: PEGA resin particle bearing FITC-β-Ala-Pro-Leu-Gly-Lys, Dnp quencher on lysine ({FITC}-[βAla]PLGK(Dnp); also: attached to PEGA resin particle)”, the “Fluorescence value (changed amount)” value in series [1] was 14.8. Moreover, the “difference in the changed amount of the fluorescence values, sample 1 (highest activity) vs sample 8 (lowest activity)” value in series [1] (subtilisin, 20 minutes) was at least 10 times. As for “Sample 2: PEGA resin particle bearing FITC-β-Ala-Ala-Pro-Ala-Lys, Dnp quencher on lysine ({FITC}-[βAla]APAK(Dnp); also: attached to PEGA resin particle)”, in series [1], the “Fluorescence value (changed amount)” value amounted to 7.9. Same read-out and setting: as for “Sample 3: PEGA resin particle bearing FITC-β-Ala-Ala-Pro-Val-Lys, Dnp quencher on lysine ({FITC}-[βAla]APVK(Dnp); also: attached to PEGA resin particle)”, the figure is 1.2. As for “Sample 10: PEGA resin particle bearing FITC-β-Ala-Asp-Gly-Arg-Lys, Dnp quencher on lysine ({FITC}-[βAla]DGRK(Dnp); also: attached to PEGA resin particle)”, in series [2], the “Fluorescence value (changed amount)” value was 57.

On to “Sample 11: PEGA resin particle bearing FITC-β-Ala-Pro-Arg-Gly-Lys, Dnp quencher on lysine ({FITC}-[βAla]PRGK(Dnp); also: attached to PEGA resin particle)”, for which the “Fluorescence value (changed amount)” value in series [2] is recorded as 51. Same read-out and setting: then “Sample 12: PEGA resin particle bearing FITC-β-Ala-His-Glu-Lys-Lys, Dnp quencher on lysine ({FITC}-[βAla]HEKK(Dnp); also: attached to PEGA resin particle)”, with 45. The same measure, in the same setting: as for “Sample 13: PEGA resin particle bearing FITC-β-Ala-Ser-Ala-Arg-Lys, Dnp quencher on lysine ({FITC}-[βAla]SARK(Dnp); also: attached to PEGA resin particle)”, the figure is 24.

In the case of “Sample 14: PEGA resin particle bearing FITC-β-Ala-Asn-Pro-Arg-Lys, Dnp quencher on lysine ({FITC}-[βAla]NPRK(Dnp); also: attached to PEGA resin particle)”, the “Fluorescence value (changed amount)” value in series [2] came to 18. Still for that read-out and setting: then “Sample 15: PEGA resin particle bearing FITC-β-Ala-Gly-Lys-Arg-Lys, Dnp quencher on lysine ({FITC}-[βAla]GKRK(Dnp); also: attached to PEGA resin particle)”, with 18.

Regarding “Sample 16: PEGA resin particle bearing FITC-β-Ala-Gly-Arg-Arg-Lys, Dnp quencher on lysine ({FITC}-[βAla]GRRK(Dnp); also: attached to PEGA resin particle)”, in series [2], the “Fluorescence value (changed amount)” value is 14. For the substance “Sample 17: PEGA resin particle bearing FITC-β-Ala-Pro-Arg-Leu-Lys, Dnp quencher on lysine ({FITC}-[βAla]PRLK(Dnp); also: attached to PEGA resin particle)”, the “Fluorescence value (changed amount)” value in series [2] is on record as 10. Regarding “Sample 18: PEGA resin particle bearing FITC-β-Ala-Thr-Arg-Val-Lys, Dnp quencher on lysine ({FITC}-[βAla]TRVK(Dnp); also: attached to PEGA resin particle)”, in series [2], the “Fluorescence value (changed amount)” value stood at 9. On the same count and under the same terms, as for “Sample 19: PEGA resin particle bearing FITC-β-Ala-Phe-Phe-Arg-Lys, Dnp quencher on lysine ({FITC}-[βAla]FFRK(Dnp); also: attached to PEGA resin particle)”, the figure is 8; as for “Sample 20: PEGA resin particle bearing FITC-β-Ala-His-Leu-Lys-Lys, Dnp quencher on lysine ({FITC}-[βAla]HLKK(Dnp); also: attached to PEGA resin particle)”, 7. For the substance “Sample 21: PEGA resin particle bearing FITC-β-Ala-Pro-Phe-Arg-Lys, Dnp quencher on lysine ({FITC}-[βAla]PFRK(Dnp); also: attached to PEGA resin particle)”, the “Fluorescence value (changed amount)” value in series [2] was 3.

As to “Sample 22: PEGA resin particle bearing FITC-β-Ala-Leu-Leu-Glu-Lys, Dnp quencher on lysine ({FITC}-[βAla]LLEK(Dnp); also: attached to PEGA resin particle)”, in series [3], the “Fluorescence value Elastase (changed amount)” value was found to be 38. The “Fluorescence value Subtilisin (changed amount)” value in series [4] was 481. The “fluorescence change by trypsin activity relative to that by subtilisin activity” value in series [5] (Table 3 values, same particle) was “about 1/240”. The “Fluorescence value Trypsin (changed amount)” value in series [5] came out at 2.

Regarding “Sample 23: PEGA resin particle bearing FITC-β-Ala-Ala-Pro-Ala-Lys, Dnp quencher on lysine ({FITC}-[βAla]APAK(Dnp); also: attached to PEGA resin particle)”, the “fluorescence change by elastase activity relative to that by subtilisin activity” value in series [3] (Table 3 values, same particle) is “about 2 times”. Moreover, the “Fluorescence value Elastase (changed amount)” value in series [3] is on record as 582. In series [4], the “Fluorescence value Subtilisin (changed amount)” value came out at 291. The “Fluorescence value Trypsin (changed amount)” value in series [5] was 13.

Consider “Sample 24: PEGA resin particle bearing FITC-β-Ala-Asn-Leu-Asp-Lys, Dnp quencher on lysine ({FITC}-[βAla]NLDK(Dnp); also: attached to PEGA resin particle)”, for which the “Fluorescence value Elastase (changed amount)” value in series [3] came to 23. For the same substance, the “Fluorescence value Subtilisin (changed amount)” value in series [4] is reported as 446. The “Fluorescence value Trypsin (changed amount)” value in series [5] was 5. On the same counts, the results for “Sample 25: PEGA resin particle bearing FITC-β-Ala-Ala-Pro-Leu-Lys, Dnp quencher on lysine ({FITC}-[βAla]APLK(Dnp); also: attached to PEGA resin particle)” are 134, 428 and 11.
